Read-outs that look alike come from different tables or passages of the source.
Key:
[1] = target: T1, His-GST-TVMV-hRIPK1(1-324) (Homo sapiens, UniProt Q13546); assay: biochemical; assay type: binding
T1 construct: The coding region of human RIPK1(1-324) flanked by NdeI site at 5′ end; made in house; host or cells: Spodoptera frugiperda Sf9 insect cells (baculovirus, Bac-to-Bac)
T1 sequence (Q13546 1-324): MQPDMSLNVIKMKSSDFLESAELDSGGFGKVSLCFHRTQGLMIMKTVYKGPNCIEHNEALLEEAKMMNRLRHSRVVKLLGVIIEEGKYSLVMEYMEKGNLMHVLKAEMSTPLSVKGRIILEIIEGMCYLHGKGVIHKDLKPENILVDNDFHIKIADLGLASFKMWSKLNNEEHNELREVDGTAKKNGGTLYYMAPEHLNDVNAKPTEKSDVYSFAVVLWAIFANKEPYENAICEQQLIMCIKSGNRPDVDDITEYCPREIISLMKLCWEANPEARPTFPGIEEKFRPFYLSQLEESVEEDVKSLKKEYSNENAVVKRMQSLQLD

[2] = test system: MLKL phosphorylation in HT29-L23 human colorectal adenocarcinoma cells; assay: MLKL phosphorylation high-content assay; assay type: cell-based
[3] = target: GST-tagged PIK3Cδ in complex with PIK3R1 (Homo sapiens, UniProt O00329); assay: PI3Kδ HTRF binding assay; settings: HTRF probe displacement, 1 h at rt; read-out: PIK3CD IC50
Sequence of GST-tagged PIK3Cδ in complex with PIK3R1 (O00329 whole entry): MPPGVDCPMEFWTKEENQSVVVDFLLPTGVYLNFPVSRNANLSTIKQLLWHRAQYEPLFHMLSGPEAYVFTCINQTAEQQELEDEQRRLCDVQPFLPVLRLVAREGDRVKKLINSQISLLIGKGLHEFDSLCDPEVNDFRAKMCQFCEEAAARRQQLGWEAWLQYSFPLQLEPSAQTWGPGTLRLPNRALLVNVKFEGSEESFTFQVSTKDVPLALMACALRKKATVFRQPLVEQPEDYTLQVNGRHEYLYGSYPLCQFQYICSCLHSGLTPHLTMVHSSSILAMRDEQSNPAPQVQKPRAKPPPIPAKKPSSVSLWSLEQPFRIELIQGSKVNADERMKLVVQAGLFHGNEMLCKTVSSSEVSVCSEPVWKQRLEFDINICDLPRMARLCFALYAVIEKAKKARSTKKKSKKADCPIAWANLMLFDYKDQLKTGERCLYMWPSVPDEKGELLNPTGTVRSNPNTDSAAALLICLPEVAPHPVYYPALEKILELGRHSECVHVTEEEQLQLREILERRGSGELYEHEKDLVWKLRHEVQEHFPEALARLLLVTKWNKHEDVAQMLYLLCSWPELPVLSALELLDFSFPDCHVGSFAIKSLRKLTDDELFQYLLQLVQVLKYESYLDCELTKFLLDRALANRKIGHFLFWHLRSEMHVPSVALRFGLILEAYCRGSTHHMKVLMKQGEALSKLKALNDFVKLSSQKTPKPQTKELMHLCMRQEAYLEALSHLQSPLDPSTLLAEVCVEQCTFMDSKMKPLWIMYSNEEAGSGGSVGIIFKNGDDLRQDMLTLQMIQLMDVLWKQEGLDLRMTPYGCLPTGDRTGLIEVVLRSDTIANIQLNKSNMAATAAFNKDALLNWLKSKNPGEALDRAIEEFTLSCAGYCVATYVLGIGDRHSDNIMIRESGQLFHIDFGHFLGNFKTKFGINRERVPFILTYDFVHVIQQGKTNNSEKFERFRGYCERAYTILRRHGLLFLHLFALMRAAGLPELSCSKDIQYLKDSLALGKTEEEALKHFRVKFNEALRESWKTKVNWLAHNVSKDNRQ
Sequence of GST-tagged PIK3Cδ in complex with PIK3R1 (P27986 whole entry partner): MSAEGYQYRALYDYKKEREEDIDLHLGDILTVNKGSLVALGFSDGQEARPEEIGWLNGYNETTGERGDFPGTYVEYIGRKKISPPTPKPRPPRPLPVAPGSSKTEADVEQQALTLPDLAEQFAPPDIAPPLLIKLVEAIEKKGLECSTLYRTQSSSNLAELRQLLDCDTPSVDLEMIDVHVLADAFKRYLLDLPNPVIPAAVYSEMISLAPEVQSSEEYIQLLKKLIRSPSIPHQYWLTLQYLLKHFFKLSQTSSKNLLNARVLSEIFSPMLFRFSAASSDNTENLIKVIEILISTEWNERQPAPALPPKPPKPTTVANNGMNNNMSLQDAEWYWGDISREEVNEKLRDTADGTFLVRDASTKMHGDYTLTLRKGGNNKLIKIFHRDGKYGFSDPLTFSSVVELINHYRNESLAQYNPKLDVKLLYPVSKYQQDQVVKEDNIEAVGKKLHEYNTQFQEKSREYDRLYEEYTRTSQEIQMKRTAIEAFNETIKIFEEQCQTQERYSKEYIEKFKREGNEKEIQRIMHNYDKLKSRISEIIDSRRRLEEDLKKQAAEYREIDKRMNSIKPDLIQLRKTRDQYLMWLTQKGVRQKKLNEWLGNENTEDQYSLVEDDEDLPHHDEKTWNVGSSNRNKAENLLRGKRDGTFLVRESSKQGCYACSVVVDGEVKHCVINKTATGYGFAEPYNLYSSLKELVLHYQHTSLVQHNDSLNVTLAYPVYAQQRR

[4] = HTRF probe displacement, 1 h at rt, read-out: RIPK1 IC50
[5] = read-out: pMLKL IC50, HT29-L23 cells, necroptosis induced with TNFα, SMAC mimetic and Z-VAD, 6 h, maximal inhibition defined by Nec1s
[6] = Homo sapiens, 6 h, read-out: pMLKL IC50, HT29-L23 cells, necroptosis induced with TNFα, SMAC mimetic and Z-VAD, 6 h, maximal inhibition defined by Nec1s

SMILES	IC50 [1, 4]	IC50 [2, 5]	IC50 [3]	IC50 [2, 6]	IC50 ([1]; Table 22, compounds of the present invention, read-out: RPIK1 IC50)	IC50 ([2]; read-out: pMLKL IC50, Table 22, compounds of the present invention)
Cc1ccc(-c2ccn3nc(N)nc3c2)c(F)c1C(=O)NC(C)CC(O)c1ccc(F)cc1 (single isomer, unassigned) [Example 37, 3-(2-amino-[1,2,4]triazolo[1,5-a]pyridin-7-yl)-2-fluoro-N-(4-(4-fluorophenyl)-4-hydroxybutan-2-yl)-6-methylbenzamide]	21 nM	41 nM	> 15 µM			
Cc1ccc(-c2ccn3nc(N)nc3c2)c(F)c1C(=O)NC(C)CC(O)c1ccc(F)cc1 (single isomer, unassigned) [Example 38, 3-(2-amino-[1,2,4]triazolo[1,5-a]pyridin-7-yl)-2-fluoro-N-(4-(4-fluorophenyl)-4-hydroxybutan-2-yl)-6-methylbenzamide]	4.7 nM	6 nM	> 15 µM			
Cc1ccc(-c2ccn3nc(N)nc3c2)c(F)c1C(=O)NC(C)CC(O)c1ccc(F)cc1 (single isomer, unassigned) [Example 39, 3-(2-amino-[1,2,4]triazolo[1,5-a]pyridin-7-yl)-2-fluoro-N-(4-(4-fluorophenyl)-4-hydroxybutan-2-yl)-6-methylbenzamide]	163 nM	397 nM	> 15 µM			
Cc1ccc(-c2ccn3nc(N)nc3c2)c(F)c1C(=O)NCCC(O)C1CCCCC1 (single isomer, unassigned) [Example 41, 3-(2-amino-[1,2,4]triazolo[1,5-a]pyridin-7-yl)-N-(3-cyclohexyl-3-hydroxypropyl)-2-fluoro-6-methylbenzamide]	5.4 nM	7.7 nM	> 15 µM			
Cc1ccc(-c2ccn3nc(N)nc3c2)c(F)c1C(=O)NCCC(O)C1CCCCC1 (single isomer, unassigned) [Example 42, 3-(2-amino-[1,2,4]triazolo[1,5-a]pyridin-7-yl)-N-(3-cyclohexyl-3-hydroxypropyl)-2-fluoro-6-methylbenzamide]	1.3 nM	2.8 nM	> 15 µM			
Cc1ccc(-c2ccn3nc(N)nc3c2)c(F)c1C(=O)NCCC(O)c1ccc(F)cc1 (single isomer, unassigned) [Example 50, 3-(2-amino-[1,2,4]triazolo[1,5-a]pyridin-7-yl)-2-fluoro-N-(3-(4-fluorophenyl)-3-hydroxypropyl)-6-methylbenzamide]	0.3 nM		> 15 µM	1.9 nM		
Cc1ccc(-c2ccn3nc(N)nc3c2)c(F)c1C(=O)NCCC(O)c1ccc(F)cc1 (single isomer, unassigned) [Example 51, 3-(2-amino-[1,2,4]triazolo[1,5-a]pyridin-7-yl)-2-fluoro-N-(3-(4-fluorophenyl)-3-hydroxypropyl)-6-methylbenzamide]	3.7 nM	1.8 nM	> 15 µM			
[2H]C([2H])(CC([2H])(O)c1ccc(Cl)cc1)NC(=O)c1c(C)ccc(-c2ccn3nc(N)nc3c2)c1F (single isomer, unassigned) [Example 53, 3-(2-amino-[1,2,4]triazolo[1,5-a]pyridin-7-yl)-N-(3-(4-chlorophenyl)-3-hydroxypropyl-1,1,3-d3)-2-fluoro-6-methylbenzamide]	1.2 nM	0.9 nM	14 µM			
[2H]C([2H])(CC([2H])(O)c1ccc(Cl)cc1)NC(=O)c1c(C)ccc(-c2ccn3nc(N)nc3c2)c1F (single isomer, unassigned) [Example 54, 3-(2-amino-[1,2,4]triazolo[1,5-a]pyridin-7-yl)-N-(3-(4-chlorophenyl)-3-hydroxypropyl-1,1,3-d3)-2-fluoro-6-methylbenzamide]	2.7 nM	1 nM	> 15 µM			
Cc1ccc(-c2ccn3nc(N)nc3c2)c(F)c1C(=O)NCCC(O)c1ccc(C(F)(F)F)cc1 (single isomer, unassigned) [Example 56, 3-(2-amino-[1,2,4]triazolo[1,5-a]pyridin-7-yl)-2-fluoro-N-(3-hydroxy-3-(4-(trifluoromethyl)phenyl)propyl)-6-methylbenzamide]	4.5 nM	0.4 nM	> 15 µM			
Cc1ccc(-c2ccn3nc(N)nc3c2)c(F)c1C(=O)NCCC(O)c1ccc(C(F)(F)F)cc1 (single isomer, unassigned) [Example 57, 3-(2-amino-[1,2,4]triazolo[1,5-a]pyridin-7-yl)-2-fluoro-N-(3-hydroxy-3-(4-(trifluoromethyl)phenyl)propyl)-6-methylbenzamide]	3.1 nM	1.9 nM	> 15 µM			
Cc1ccc(-c2ccn3nc(N)nc3c2)c(F)c1C(=O)NCCC(C)(O)c1ccc(Cl)cc1 (single isomer, unassigned) [Example 59, 3-(2-amino-[1,2,4]triazolo[1,5-a]pyridin-7-yl)-N-(3-(4-chlorophenyl)-3-hydroxybutyl)-2-fluoro-6-methylbenzamide]	2.5 nM		> 15 µM	1.2 nM		
Cc1ccc(-c2ccn3nc(N)nc3c2)c(F)c1C(=O)NCCC(C)(O)c1ccc(Cl)cc1 (single isomer, unassigned) [Example 60, 3-(2-amino-[1,2,4]triazolo[1,5-a]pyridin-7-yl)-N-(3-(4-chlorophenyl)-3-hydroxybutyl)-2-fluoro-6-methylbenzamide]	1 nM	1.3 nM	> 15 µM			
COc1cc(Cl)ccc1C(O)CCNC(=O)c1c(C)ccc(-c2ccn3nc(N)nc3c2)c1F (single isomer, unassigned) [Example 65, 3-(2-amino-[1,2,4]triazolo[1,5-a]pyridin-7-yl)-N-(3-(4-chloro-2-methoxyphenyl)-3-hydroxypropyl)-2-fluoro-6-methylbenzamide]	28 nM		> 15 µM	27 nM		
Cc1ccc(-c2ccn3nc(N)nc3c2)c(F)c1C(=O)NCCC(O)c1ccc(F)c(F)c1 (single isomer, unassigned) [Example 67, 3-(2-amino-[1,2,4]triazolo[1,5-a]pyridin-7-yl)-N-(3-(3,4-difluorophenyl)-3-hydroxypropyl)-2-fluoro-6-methylbenzamide]	4.4 nM	1.3 nM	> 15 µM		4.4 nM	1.3 nM
Cc1ccc(-c2ccn3nc(N)nc3c2)c(F)c1C(=O)NCCC(O)c1ccc(Cl)cc1F (single isomer, unassigned) [Example 68, 3-(2-amino-[1,2,4]triazolo[1,5-a]pyridin-7-yl)-N-(3-(4-chloro-2-fluorophenyl)-3-hydroxypropyl)-2-fluoro-6-methylbenzamide]	3.6 nM		> 15 µM	0.6 nM		
Cc1ccc(-c2ccn3nc(N)nc3c2)c(F)c1C(=O)NCCC(O)c1ccc(Cl)cc1F (single isomer, unassigned) [Example 69, 3-(2-amino-[1,2,4]triazolo[1,5-a]pyridin-7-yl)-N-(3-(4-chloro-2-fluorophenyl)-3-hydroxypropyl)-2-fluoro-6-methylbenzamide]	1.4 nM	0.4 nM	> 15 µM			
Cc1ccc(-c2ccn3nc(N)nc3c2)c(F)c1C(=O)NCCC(O)c1ccccc1F (single isomer, unassigned) [Example 70, 3-(2-amino-[1,2,4]triazolo[1,5-a]pyridin-7-yl)-2-fluoro-N-(3-(2-fluorophenyl)-3-hydroxypropyl)-6-methylbenzamide]	11 nM	8.1 nM	> 15 µM			
Cc1ccc(-c2ccn3nc(N)nc3c2)c(F)c1C(=O)NCCC(O)c1ccccc1F (single isomer, unassigned) [Example 71, 3-(2-amino-[1,2,4]triazolo[1,5-a]pyridin-7-yl)-2-fluoro-N-(3-(2-fluorophenyl)-3-hydroxypropyl)-6-methylbenzamide]	18 nM	21 nM	> 15 µM			
Cc1ccc(-c2ccn3nc(N)nc3c2)c(F)c1C(=O)NCCC(O)c1c(F)cccc1F (single isomer, unassigned) [Example 74, 3-(2-amino-[1,2,4]triazolo[1,5-a]pyridin-7-yl)-Nr-(3-(2,6-difluorophenyl)-3-hydroxypropyl)-2-fluoro-6-methylbenzamide]	13 nM		> 15 µM	8.2 nM		
Nc1nc2cc(-c3ccc(Cl)c(C(=O)NCCC(O)c4ccc(Cl)cn4)c3F)ccn2n1 (single isomer, unassigned) [Example 82, 3-(2-amino-[1,2,4]triazolo[1,5-a]pyridin-7-yl)-6-chloro-N-(3-(5-chloropyridin-2-yl)-3-hydroxypropyl)-2-fluorobenzamide]	27 nM		12 µM	26 nM		
Nc1nc2cc(-c3ccc(Cl)c(C(=O)NCCC(O)c4ccc(Cl)cn4)c3F)ccn2n1 (single isomer, unassigned) [Example 83, 3-(2-amino-[1,2,4]triazolo[1,5-a]pyridin-7-yl)-6-chloro-N-(3-(5-chloropyridin-2-yl)-3-hydroxypropyl)-2-fluorobenzamide]	29 nM	17 nM	11 µM			
